Converted amounts (≈) assume the structure as drawn.
Assays:
Format in all cases: physicochemical
[1] = Variable temperature XRPD (VT XRPD)
Experimental: For variable temperature (VT) experiments the samples were prepared and analysed in an Anton Paar chromed sample holder. A heating/cooling rate of 10° C./min was used with a 2 min isothermal hold before the measurement started. The measurement parameters are as per the standard screening data collection method (detailed above). Measurements were taken at the following temperatures: 25, 50, 75, 100, 160, and 25° C. The sample was then reanalyzed by XRPD after 1 h to check for complete rehydration.
MH1 was analysed at 25, 50, 75, 100, 160 and 25° C. (10° C./min heating rate and a 2 min wait before the measurement started) on the Empyrean. The sample was then reanalysed by XRPD after 10 and 20 min to check for rehydration.
(§1) Procedure: A second batch of MH2 material was prepared using the same procedure. This sample was then analysed by VTXRPD and by XRPD under vacuum.

[2] = XRPD under vacuum
Experimental: For vacuum experiments the samples were prepared and analysed in an Anton Paar chromed sample holder. The measurement parameters are as per the standard screening data collection method (detailed above), at 25° C. with no vacuum (I2). A vacuum of around 50 mbar was then applied and the sample measured every 5 min until the anhydrate pattern was obtained for three consecutive measurements (to ensure complete dehydration, up to sample I8). The vacuum was then released and the sample analysed every 5 min for 6 measurements (until sample I22). The sample was then reanalyzed by XRPD after 1 h to check for complete rehydration.
MH1 was analysed at 25° C. with no vacuum. A vacuum of around 50 mbar was then applied and the sample measured every 5 min until the anhydrate pattern was obtained for three consecutive measurements (to ensure complete dehydration). The vacuum was then released and the sample analysed every 5 min for 6 measurements before the front of the sample stage was removed.
as §1

[3] = Solubility repeat at pH 1.2 (reverse addition); conditions: pH 1.2 buffered media, pH 1.2, simulated gastric fluid, thermodynamic from solid, pH maintained at 1.2, reverse addition
Experimental: Procedure: pH 1.2 buffered media (0.4 ml) was added to two separate 7 ml vials. For each compound, material was added in portions to the pH 1.2 media. After each addition of compound, the vial was vortex mixed and the pH and appearance was recorded. The samples were adjusted to pH 1.2 with 1M HCl to within 0.05 of the desired pH unit. This was repeated until no further material was available (˜400 mg for each form, which would give a maximum concentration of around 1000 mg/ml if no adjustment was required).

[4] = Compression studies
[5] = pH profiling solubility experiments; conditions: 24 hours
Experimental: Procedure: pH profiling solubility experiments were performed on MH1 and MH2. Solubility was determined in singlicate by suspending sufficient compound in relevant media (1.00 ml) to give a maximum final concentration as shown in the Table 17.
The suspensions were equilibrated at 25° C., on a Heidolph plate shaker set to 750 rpm for 24 hours. Samples were pH adjusted as required using 0.5M/1M HCl and 0.2M NaOH to within 0.1 of the desired pH unit (where possible). The pHs of the saturated solutions were measured (where applicable) and an appearance was recorded. The suspensions were filtered through a glass fibre C filter (particle retention […]) and diluted appropriately. Quantitation was by HPLC with reference to a standard solution of approximately 0.15 mg/ml in DMSO. Different volumes of the standard, diluted and undiluted sample solutions were injected. The solubility was calculated using the peak areas determined by integration of the peak found at the same retention time as the principal peak in the standard injection.

[6] = Stability studies with competitive slurries of the two hydrates; conditions: ambient conditions
Experimental: Procedure: Saturated solutions of the supplied MH 1 (J08343) were prepared in different solvents/systems (1 ml). The saturated solutions were then filtered and used for competitive slurry experiments.
MH1 and MH2 (ca. 15 mg each) were physically mixed before they were treated with the filtered saturated solutions (300 μL). The samples were stirred at 25° C. for 24 h then filtered, air dried and analysed by XRPD.
The same solvents were used as for samples in water activity experiments with additional IPA/heptane mixtures as this is the current crystallisation solvent. This procedure was also followed for IPA/heptane at 5 and 50° C. (3 days slurrying).
Further experiments were designed to increase the diversity of solvents/systems studied while still investigating the effect of water activity on the form obtained. This was with a view to define a solvent list for Phase 3 (Solvent Selection). Further saturated solutions were prepared as described in the procedure section using MH1 as supplied.

[7] = Gravimetric Vapour Sorption (GVS); conditions: 25° C., 0-90% RH
Experimental: Sorption isotherms were obtained using a SMS DVS Intrinsic moisture sorption analyzer, controlled by DVS Intrinsic Control software. The sample temperature was maintained at 25° C. by the instrument controls. The humidity was controlled by mixing streams of dry and wet nitrogen, with a total flow rate of 200 ml/min. The relative humidity was measured by a calibrated Rotronic probe (dynamic range of 1.0-100% RH), located near the sample. The weight change, (mass relaxation) of the sample as a function of % RH was constantly monitored by a microbalance (accuracy ±0.005 mg).
Typically, 5-30 mg of sample was placed in a tared mesh stainless steel basket under ambient conditions. The sample was loaded and unloaded at 40% RH and 25° C. (typical room conditions). A moisture sorption isotherm was performed as outlined below (2 scans per complete cycle). The standard isotherm was performed at 25° C. at 10% RH intervals over a 0-90% RH range. Typically, a double cycle (4 scans) was carried out. Data analysis was carried out within Microsoft Excel using the DVS Analysis Suite.
The sample was recovered after completion of the isotherm and re-analyzed by XRPD.

- TGA post VT XRPD mass loss [1]: 3.2%
- Form by VT XRPD upon heating ([1]; 75° C.): fully anhydrous
- Form by VT XRPD after cooling back ([1]; re-cooled to 25° C.): peaks corresponding to MH1 are present
- TGA post vacuum XRPD mass loss [2]: 3.4%
- Time to fully hydrated by XRPD after ambient air admitted ([2]; after vacuum released and front of sample stage taken off): 15 min
- Time under vacuum to conversion to the anhydrate by XRPD ([2]; vacuum of around 50 mbar, 25° C.): 10 min
- Solubility [3]: > 153 mg/mL
- Compression studies, form by XRPD [4]: no conversion to the anhydrate
- Solubility ([5]; media pH 1.2, 25° C., pH not maintained, final pH 5.02 (MH1-A), 6.63 (MH2-A)): >275 mg/mL
- Solubility ([5]; media pH 4.0, 25° C., listed as MH1-B): >106 mg/mL
- Solubility ([5]; media pH 6.5, 25° C., listed as MH1-C): >164 mg/mL
- Solubility ([5]; media pH 7.5, 25° C., listed as MH1-D): 62 mg/mL (≈ 157 mM)
- Relative stability of the forms [6]: most stable form at ambient conditions
SMILES: C[C@@H]1CN(Cc2ncccn2)C[C@H]1c1cn2c(C3CCOCC3)ncc2c(=O)[nH]1 [MH1, 6-[(3S,4S)-4-methyl-1-(pyrimidin-2-ylmethyl)pyrrolidin-3-yl]-3-tetrahydropyran-4-yl-7H-imidazo[1,5-a]pyrazin-8-one]
- GVS Max uptake [7]: Max uptake of 4.7%, no hysteresis, large step

Source: US12466832B2, “Monohydrate and crystalline forms of 6-[(3S,4S)-4-methyl-1-(pyrimidin-2-ylmethyl)pyrrolidin-3-yl]-3-tetrahydropyran-4-yl-7H-imidazo[1,5-a]pyrazin-8-one” (Cardurion Pharmaceuticals, Inc., priority 2018, dated 2025)
